“Also recorded” adds a separate entry of the source. No end group written: not given here.
Columns and labels:
[1] = tested on: S. mutans wild-type UA159; assay: S. mutans biofilms formed on polystyrene microtiter plates (b), SDM-glucose, safranin (first study); type: cell-based, Streptococcus mutans; conditions: 5 μg/ml of peptide analog; ↓ = reduced biomass compared to biofilm grown in presence of wild-type CSP
Method: Biofilms were developed in 96-well polystyrene microtiter plates. […] Wells without cells were used as blank controls. […] After the incubation, the planktonic cells were carefully removed and the plates were air dried overnight. The plates were then stained with 0.01% (wt/vol) safranin for 10 min, rinsed with sterile distilled water and air dried. Biofilms were quantified by measuring the absorbance of stained biofilms at 490 nm with a microplate reader (model 3550; Bio-Rad Laboratories, Richmond, Calif.).

[2] = tested on: S. mutans wild-type UA159; assay: S. mutans acid resistance assay (growth in THYE at pH 7.5 and pH 5.5); type: cell-based, Streptococcus mutans; conditions: 5 μg/ml of peptide analog; for Growth (pH 7.5): THYE pH 7.5; for Acid resistance (pH 5.5): growth in THYE pH 5.5
Method: The effect of peptides on acid tolerance was evaluated by assessment of growth in THYE at pH 7.5 and pH 5.5. Overnight S. mutans wild-type UA159 cells were diluted (1:20) with prewarmed THYE broth and incubated at 37° C. in air with 5% CO2 until an OD600 of approximately 0.4 was reached. A 20-fold dilution was made into 400 μl of either THYE pH 7.5 or THYE pH 5.5 broth containing different concentrations (0, 0.1, 0.5, 2, and 5 μg per ml) of peptide analogs and added in the individual wells of a 100-well Bioscreen C plate in triplicate. Wells without cells were used as blank controls. A Bioscreen microbiology reader (Labsystems, Helsinki, Finland) was employed to continuously grow cells and measure cell growth for 16 h at 37° C. Measurements were taken every 20 min with shaking to prevent cell aggregation.

S. mitis = assay: Growth and biofilm formation on polystyrene microtiter plates, crystal violet; type: cell-based, Streptococcus mitis; conditions: for Biofilm formation: additional studies
Method: (§1) They were grown in Todd-Hewitt broth containing 0.3% yeast extract (THYE) at pH 5.5 or 7.5. […] In liquid media, cultures were incubated in closed screw-cap tubes without agitation at 37° C. in an anaerobic chamber (5% CO2).
(§2) Wells without cells were used as blank controls.

S. sanguis = assay: as above; type: cell-based, Streptococcus sanguis; conditions: for Biofilm formation: additional studies
Method: as §1, §2

S. pneumoniae = assay: as above; type: cell-based, Streptococcus pneumoniae; conditions: for Biofilm formation: additional studies
Method: as §1, §2

S. oralis = assay: as above; type: cell-based, Streptococcus oralis; conditions: for Biofilm formation: additional studies
Method: as §1, §2

[3] = tested on: mixed culture of the above Streptococcus spp.; assay: Mixed culture biofilm formation; type: cell-based; conditions: data not shown
Source text: as §2

S. gordonii = assay: Growth and biofilm formation on polystyrene microtiter plates, crystal violet; type: cell-based, Streptococcus gordonii; conditions: for Biofilm formation: additional studies
Method: as §1, §2

S. sobrinus = assay: as above; type: cell-based, Streptococcus sobrinus; conditions: for Biofilm formation: additional studies
Method: as §1, §2

[4] = tested on: S. mutans wild-type UA159; assay: S. mutans competence assay (genetic transformation with plasmid pDL289); type: cell-based, Streptococcus mutans; conditions: 5 μg/ml of peptide analog; for Transformation efficiency (vs no CSP): compared with natural transformation without exogenous CSP, 'no effect' = no significant difference by comparison with CSP; for Transformation efficiency (vs 5 μg CSP): compared with wild-type S. mutans CSP (5 μg CSP)
Method: To determine if the peptide analogs had any impact on the development of genetic competence, S. mutans UA159 wild-type cells were assayed for genetic transformation. Overnight cultures of S. mutans UA159 were diluted (1:20) with prewarmed THYE broth and incubated at 37° C. in air with 5% CO2 until an optical density (OD) of approximately 0.1 at 600 nm was reached. The culture was then divided into six aliquots containing 1 μg/ml of plasmid pDL289 and different concentrations (0, 0.1, 0.5, 2, and 5 μg per ml) of peptide analogs. The cultures were incubated at 37° C. in air with 5% CO2 for 2.5 h, gently sonicated for 10 s to disperse the streptococcal chains, and spread on THYE plates containing kanamycin. Plates were incubated at 37° C. in air with 5% CO2 for 48 h. Total recipient cells were counted by spreading serial dilutions on THYE agar plates without antibiotic. Transformation efficiency was expressed as the percentage of kanamycin resistant transformants over the total number of recipient cells.

SGSLSTFFVLFNRSFTQALGK (SGSLSTFFRLFNRSFTQALGV; F2 peptide analog) [B2, S. mutans CSP analog, substitution of 1st R residue with V]
Bioflim formation (SDM-glucose) [1]: no effect | Growth (pH 7.5) [2]: no effect | Acid resistance (pH 5.5) [2]: significant decrease in cell growth

SGSLSTFFRLFNVSFTQALGK [D2, S. mutans CSP analog, substitution of 2nd R residue with V]
Bioflim formation (SDM-glucose) [1]: no effect | Growth (pH 7.5) [2]: no effect | Acid resistance (pH 5.5) [2]: significant decrease in cell growth

SGSLSTFFRLFNASFTQALGK [E2]
Growth (S. mitis; 5 μg/ml): inhibitory effects | Biofilm formation (S. mitis): significantly reduce biofilm formation | Growth (S. sanguis; 5 μg/ml): inhibitory effects | Biofilm formation (S. sanguis): significantly reduce biofilm formation | Growth (pH 7.5) [2]: no effect; also recorded: without affecting the cell growth | Acid resistance (pH 5.5) [2]: significant decrease in cell growth; also recorded: inhibited cell growth | Growth (S. pneumoniae; 5 μg/ml): inhibitory effects | Biofilm formation (S. pneumoniae): significantly reduce biofilm formation | Growth (S. oralis; 5 μg/ml): inhibitory effects | Biofilm formation (S. oralis): significantly reduce biofilm formation | Mixed culture biofilm formation [3]: significant inhibitory effect | Growth (S. gordonii; 5 μg/ml): inhibitory effects | Biofilm formation (S. gordonii): significantly reduce biofilm formation | Growth (S. sobrinus; 5 μg/ml): inhibitory effects | Biofilm formation (S. sobrinus): significantly reduce biofilm formation

SGTLSTFFRLFNRSFTQALGK [B3]
Biofilm formation (S. mitis): significantly reduce biofilm formation | Biofilm formation (S. sanguis): significantly reduce biofilm formation | Growth (pH 7.5) [2]: no effect | Acid resistance (pH 5.5) [2]: significant decrease in cell growth | Biofilm formation (S. pneumoniae): significantly reduce biofilm formation | Biofilm formation (S. oralis): significantly reduce biofilm formation | Biofilm formation (S. gordonii): significantly reduce biofilm formation | Biofilm formation (S. sobrinus): significantly reduce biofilm formation

G1: S. mutans CSP analog, 3rd residue removed from C′ (SGSLSTFFALFNRSFTQALGK; C2 peptide analog)
Growth (pH 7.5) [2]: ↓growth | Acid resistance (pH 5.5) [2]: growth

SGSLSTFFRLFNRSFTQALGV [F2, S. mutans CSP analog, substitution of K residue with V]
Growth (pH 7.5) [2]: diminution of cell growth | Acid resistance (pH 5.5) [2]: diminution of cell growth

A2: S. mutans CSP analog, 5th residue removed from C′ (SGSLSTFFRLFNASFTQALGK; E2 peptide analog)
Bioflim formation (SDM-glucose) [1]: no effect | Growth (pH 7.5) [2]: no effect | Acid resistance (pH 5.5) [2]: significant decrease in cell growth

IH-2: S. mutans CSP analog, 1st residue removed from C′ (SGSLTFFRLFNRSFTQALGK; E1 peptide analog)
Bioflim formation (SDM-glucose) [1]: no effect | Transformation efficiency (vs no CSP) [4]: no effect | Transformation efficiency (vs 5 μg CSP) [4]: no significant effect | Growth (pH 7.5) [2]: ↓growth | Acid resistance (pH 5.5) [2]: growth

F1: S. mutans CSP analog, 2nd residue removed from C′ (SGSLSTFFVLFNRSFTQALGK; B2 peptide analog)
Biofilm formation (S. mitis): significantly reduce biofilm formation | Biofilm formation (S. sanguis): significantly reduce biofilm formation | Growth (pH 7.5) [2]: diminution of cell growth | Acid resistance (pH 5.5) [2]: diminution of cell growth | Biofilm formation (S. pneumoniae): significantly reduce biofilm formation | Biofilm formation (S. oralis): significantly reduce biofilm formation | Biofilm formation (S. gordonii): significantly reduce biofilm formation | Biofilm formation (S. sobrinus): significantly reduce biofilm formation

IH-1: S. mutans CSP analog, 1st residue removed from N′ (SGSSTFFRLFNRSFTQALGK; D1 peptide analog)
Bioflim formation (SDM-glucose) [1]: no effect | Transformation efficiency (vs no CSP) [4]: no effect^a | Transformation efficiency (vs 5 μg CSP) [4]: no significant effect | Growth (pH 7.5) [2]: ↓growth | Acid resistance (pH 5.5) [2]: growth

C1: S. mutans CSP analog, 3rd residue removed from N′ (SGSLSTFFRLFNRSFTQAGK; G1 peptide analog)
Bioflim formation (SDM-glucose) [1]: no effect | Transformation efficiency (vs no CSP) [4]: no effect | Transformation efficiency (vs 5 μg CSP) [4]: no significant effect | Growth (pH 7.5) [2]: ↓growth | Acid resistance (pH 5.5) [2]: growth

D1: S. mutans CSP analog, 4th residue removed from N′ (SGSLSTFFRLFNRSFTQLGK; H1 peptide analog)
Bioflim formation (SDM-glucose) [1]: no effect | Growth (pH 7.5) [2]: ↓growth | Acid resistance (pH 5.5) [2]: growth

SGSLSTFFALFNRSFTQALGK (SGSLSTFFRLFNRSFTQALGA; G2 peptide analog) [C2, S. mutans CSP analog, substitution of 1st R residue with A]
Biofilm formation (S. mitis): significantly reduce biofilm formation | Biofilm formation (S. sanguis): significantly reduce biofilm formation | Bioflim formation (SDM-glucose) [1]: no effect | Growth (pH 7.5) [2]: no effect | Acid resistance (pH 5.5) [2]: significant decrease in cell growth | Biofilm formation (S. pneumoniae): significantly reduce biofilm formation | Biofilm formation (S. oralis): significantly reduce biofilm formation | Biofilm formation (S. gordonii): significantly reduce biofilm formation | Biofilm formation (S. sobrinus): significantly reduce biofilm formation

E1: S. mutans CSP analog, 5th residue removed from N′ (SGSLSTFFRLFNRSFTALGK; A2 peptide analog)
Bioflim formation (SDM-glucose) [1]: no effect | Growth (pH 7.5) [2]: ↓growth | Acid resistance (pH 5.5) [2]: growth

B1: S. mutans CSP analog, 2nd residue removed from N′ (SGSLSTFFRLFNRSFTQALK; F1 peptide analog)
Bioflim formation (SDM-glucose) [1]: no effect | Transformation efficiency (vs no CSP) [4]: no effect | Transformation efficiency (vs 5 μg CSP) [4]: no significant effect | Growth (pH 7.5) [2]: ↓growth | Acid resistance (pH 5.5) [2]: growth

SGSLSTFFRLFNRSFTQALGA [G2, S. mutans CSP analog, substitution of K residue with A]
Growth (pH 7.5) [2]: diminution of cell growth | Acid resistance (pH 5.5) [2]: diminution of cell growth

Reference: patent US7556807B2, “Signal peptides, nucleic acid molecules and methods for treatment of caries” (priority 2001, dated 2009)
